# Laboratory results published in patent US8828989B2, “Oxy-cyclohexyl-4H,6H-5-oxa-2,3,10b-triaza-benzo[E]azulenes as V1A antagonists” (Hoffmann-La Roche Inc., priority 2011, dated 2014).
# Target: T1, human V1a receptor (Homo sapiens, UniProt P37288)
# T1 construct: expressed in transfected cells; host or cells: HEK293 cells, transiently transfected (membrane preparation)
# Assay: human V1a receptor binding studies (3H-Vasopressin SPA, membranes of transfected HEK293 cells)
# Details: 3H-Vasopressin displacement, HEK293 cell membranes, Ki by Cheng-Prussoff equation; read-out: pKi hV1a (converted)
# Protocol: The human V1a receptor was cloned by RT-PCR from total human liver RNA. The coding sequence was subcloned in an expression vector after sequencing to confirm the identity of the amplified sequence. […] Cell membranes were prepared from HEK293 cells transiently transfected with the expression vector and grown in 20 liter fermenters with the following protocol.
# 50 g of cells are resuspended in 30 ml freshly prepared ice cold Lysis buffer (50 mM HEPES, 1 mM EDTA, 10 mM MgCl2 adjusted to pH=7.4+complete cocktail of protease inhibitor (Roche Diagnostics)). Homogenized with Polytron for 1 min and sonicated on ice for 2×2 minutes at 80% intensity (Vibracell sonicator). The preparation is centrifuged 20 min at 500 g at 4° C., the pellet is discarded and the supernatant centrifuged 1 hour at 43,000 g at 4° C. (19,000 rpm). The pellet is resuspended in 12.5 ml Lysis buffer+12.5 ml Sucrose 20% and homogenized using a Polytron for 1-2 min. The protein concentration is determined by the Bradford method and aliquots are stored at −80° C. until use. For binding studies 60 mg Yttrium silicate SPA beads (Amersham) are mixed with an aliquot of membrane in binding buffer (50 mM Tris, 120 mM NaCl, 5 mM KCl, 2 mM CaCl2, 10 mM MgCl2) for 15 minutes with mixing. 50 μl of bead/membrane mixture is then added to each well of a 96 well plate, followed by 50 μl of 4 nM 3H-Vasopressin (American Radiolabeled Chemicals). For total binding measurement 100 μl of binding buffer are added to the respective wells, for non-specific binding 100 μl of […] cold vasopressin and for compound testing 100 μl of a serial dilution of each compound in 2% DMSO. The plate is incubated 1 h at room temperature, centrifuged 1 min at 1000 g and counted on a Packard Top-Count. Non-specific binding counts are subtracted from each well and data is normalized to the maximum specific binding set at 100%. To calculate an IC 50 the curve is fitted using a non-linear regression model (XLfit) and the Ki is calculated using the Cheng-Prussoff equation.
# T1 sequence (P37288 whole entry): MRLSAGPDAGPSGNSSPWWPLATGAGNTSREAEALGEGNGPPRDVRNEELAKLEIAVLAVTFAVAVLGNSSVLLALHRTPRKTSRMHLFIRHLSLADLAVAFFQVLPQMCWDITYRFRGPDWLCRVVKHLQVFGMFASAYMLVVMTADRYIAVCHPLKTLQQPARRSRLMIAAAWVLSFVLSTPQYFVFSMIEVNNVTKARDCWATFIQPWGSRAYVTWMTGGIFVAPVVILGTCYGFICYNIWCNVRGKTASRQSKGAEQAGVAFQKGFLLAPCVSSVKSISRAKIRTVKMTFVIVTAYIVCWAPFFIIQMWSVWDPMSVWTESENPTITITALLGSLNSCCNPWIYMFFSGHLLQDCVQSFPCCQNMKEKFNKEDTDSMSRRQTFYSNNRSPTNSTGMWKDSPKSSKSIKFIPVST
row,Ki [nM],SMILES
1,19.1,"CC(C)O[C@H]1CC[C@H](c2nnc3n2-c2ccc(Cl)cc2COC3)CC1 [Example 1, trans-8-Chloro-1-(4-isopropoxy-cyclohexyl)-4H,6H-5-oxa-2,3,10b-triaza-benzo[e]azulene]"
2,1.32,"Clc1ccc2c(c1)COCc1nnc([C@H]3CC[C@H](Oc4ccccc4)CC3)n1-2 [Example 4, trans-8-Chloro-1-(4-phenoxy-cyclohexyl)-4H,6H-5-oxa-2,3,10b-triaza-benzo[e]azulene]"
3,26.9,"Clc1ccc2c(c1)COCc1nnc([C@H]3CC[C@H](Oc4cnccn4)CC3)n1-2 [Example 6, trans-8-Chloro-1-[4-(pyrazin-2-yloxy)-cyclohexyl]-4H,6H-5-oxa-2,3,10b-triaza-benzo[e]azulene]"

# Second part, the compound before the results:
row,SMILES,Ki [nM]
1,"Clc1ccc2c(c1)COCc1nnc([C@H]3CC[C@H](OC4CCCC4)CC3)n1-2 [Example 3, trans-8-Chloro-1-(4-cyclopentyloxy-cyclohexyl)-4H,6H-5-oxa-2,3,10b-triaza-benzo[e]azulene]",0.407
2,"CCC(C)O[C@H]1CC[C@H](c2nnc3n2-c2ccc(Cl)cc2COC3)CC1 (stereo partly drawn) [Example 2, trans-1-(4-sec-Butoxy-cyclohexyl)-8-chloro-4H,6H-5-oxa-2,3,10b-triaza-benzo[e]azulene]",4.37
3,"Clc1ccc2c(c1)COCc1nnc([C@H]3CC[C@H](Oc4ccccn4)CC3)n1-2 [Example 5, trans-8-Chloro-1-[4-(pyridin-2-yloxy)-cyclohexyl]-4H,6H-5-oxa-2,3,10b-triaza-benzo[e]azulene]",2.34
